Target: hFEN1 (Homo sapiens (Human), UniProt P39748)
Experiment: Enzymatic IC50 assay, FAM-labeled DNA oligomer substrate, fluorescence intensity (FEN1)
Assay type: biochemical
Conditions: hFEN1 70 pM, substrate 100 nM, reaction time 20 minutes, 23° C.
Protocol: FEN1, EXO1 or XPG enzyme was incubated with compound or vehicle (DMSO) and the FAM-labeled DNA oligomer substrate in a microtiter plate. The stop buffer contains EDTA to stop the enzymatic reaction. The plate is read for fluorescence intensity. The high control (DMSO) with high fluorescence intensity represents no inhibition of enzymatic reaction while the low control (10 μM) with low fluorescence intensity represents full inhibition of enzymatic reaction.
• FEN1 • hFEN1: 70 pM • Substrate: 100 nM • Reaction time: 20 minutes • EXO1 • hEXO1: 6 nM, Isoforml • Substrate: 30 nM • Reaction time: 60 minutes • XPG • hXPG: 100 nM • Substrate: 100 nM • Reaction time: 120 minutes
Annealing Buffer: 50 mM Tris-HCl, 50 mM NaCl, 1 mM DTT Assay buffer: 50 mM Tris-HCl pH 8.0, 10 mM MgCl2, 0.01% BSA, 1 mM DTT Stop buffer: 50 mM EDTA in assay buffer Temperature: 23° C. Total volume: 40 μl Controls: • 0% inhibition control: DMSO • 100% inhibition control: 10 μM (final) 5-chloro-3-hydroxy-1,3-dihydroquinazoline-2,4-dione Enzyme Reaction and Detection: • 1. Prepare 25 μM intermediate stock of the substrate by diluting SEQ ID NO:1, SEQ ID NO:2, and SEQ ID NO:3 in annealing buffer, in a PCR tube. • 2. Place the PCR tube on a heat block, heat at 95° C. for 3 minutes, then drop in 0.2° C. increments over 2 minutes, stopping at 25° C. • 3. Remove the tube and let the tube cool at room temperature. • 4. Transfer 10 μL of 3× final concentration test compounds or DMSO to the appropriate wells of a microtiter plate. • 5. Transfer 10 μL of 3× final concentration enzyme in assay buffer or assay buffer alone to the appropriate wells. • 6. Incubate the plate at room temperature for 15 minutes. • 7. Transfer 10 μL of 3× substrate in assay buffer to all the test wells. • 8. Incubate the plate at room temperature for prescribed reaction time. • 9. Centrifuge the plate at 1000 rpm for 1 minute. • 10. Transfer 10 μL of stop buffer to all the test wells. • 11. Centrifuge the plate at 1000 rpm for 1 minute. • 12. Read the plate on a plate reader.

Chain of hFEN1 (P39748 whole entry): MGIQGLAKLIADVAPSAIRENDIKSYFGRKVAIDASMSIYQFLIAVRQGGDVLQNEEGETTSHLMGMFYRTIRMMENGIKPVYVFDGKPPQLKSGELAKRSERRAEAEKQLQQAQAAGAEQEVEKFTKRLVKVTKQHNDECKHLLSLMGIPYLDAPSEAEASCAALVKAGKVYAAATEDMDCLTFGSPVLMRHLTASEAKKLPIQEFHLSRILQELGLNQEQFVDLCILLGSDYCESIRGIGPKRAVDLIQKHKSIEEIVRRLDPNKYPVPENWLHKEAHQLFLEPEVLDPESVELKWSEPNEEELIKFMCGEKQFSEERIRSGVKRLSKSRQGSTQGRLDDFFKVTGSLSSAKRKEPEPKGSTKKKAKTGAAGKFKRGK

IC50	SMILES
0.75 to 2.25 µM	O=C(O)c1c(O)c(=O)n(CC2CCCO2)c2ccsc12 (stereo not shown) [Example 8, 6-hydroxy-5-oxo-4-(tetrahydrofuran-2-ylmethyl)thieno[3,2-b]pyridine-7-carboxylic acid]
2.25 to 10 µM	O=C(O)c1c(O)c(=O)n(CC2CCNCC2)c2ccsc12 [Example 10, 6-hydroxy-5-oxo-4-(4-piperidylmethyl)thieno[3,2-b]pyridine-7-carboxylic acid]
0.25 to 0.75 µM	O=C(O)c1c(O)c(=O)n(Cc2cccc(F)c2)c2ccsc12 [Example 11, 4-(3-fluorobenzyl)-6-hydroxy-5-oxo-4,5-dihydrothieno[3,2-b]pyridine-7-carboxylic acid]
< 0.2 µM	O=C(O)c1c(O)c(=O)n(CC2COc3ccccc3O2)c2ccsc12 (stereo not shown) [Example 13, 4-(2,3-dihydro-1,4-benzodioxin-3-ylmethyl)-6-hydroxy-5-oxo-thieno[3,2-b]pyridine-7-carboxylic acid]
0.75 to 2.25 µM	CC(=O)Nc1ccc(Cn2c(=O)c(O)c(C(=O)O)c3sccc32)cc1Cl [Example 14, 4-(4-acetamido-3-chlorobenzyl)-6-hydroxy-5-oxo-4,5-dihydrothieno[3,2-b]pyridine-7-carboxylic acid]
0.75 to 2.25 µM	O=C(O)c1c(O)c(=O)n(Cc2ccc3[nH]c(=O)ccc3c2)c2ccsc12 [Example 17, 6-hydroxy-5-oxo-4-[(2-oxo-1H-quinolin-6-yl)methyl]thieno[3,2-b]pyridine-7-carboxylic acid]
0.25 to 0.75 µM	O=C(O)c1c(O)c(=O)n(Cc2ncn(-c3ccccc3)n2)c2ccsc12 [Example 20, 6-hydroxy-5-oxo-4-[(1-phenyl-1H-1,2,4-triazol-3-yl)methyl]-4,5-dihydrothieno[3,2-b]pyridine-7-carboxylic acid]
< 0.2 µM	O=C(O)c1c(O)c(=O)n(Cc2cnn(-c3ccc([N+](=O)[O-])cc3)c2)c2ccsc12 [Example 21, 6-hydroxy-4-{[1-(4-nitrophenyl)-1H-pyrazol-4-yl]methyl}-5-oxo-4,5-dihydrothieno[3,2-b]pyridine-7-carboxylic acid]
< 0.2 µM	COc1ccc(-n2cc(Cn3c(=O)c(O)c(C(=O)O)c4sccc43)nn2)cc1 [Example 25, 6-hydroxy-4-{[1-(4-methoxyphenyl)triazol-4-yl]methyl}-5-oxo-thieno[3,2-b]pyridine-7-carboxylic acid]
< 0.2 µM	COc1cc(Cn2cc(Cn3c(=O)c(O)c(C(=O)O)c4sccc43)cn2)ccc1C#N [Example 26, 4-{[1-(4-cyano-3-methoxybenzyl)-1H-pyrazol-4-yl]methyl}-6-hydroxy-5-oxo-4,5-dihydrothieno[3,2-b]pyridine-7-carboxylic acid]
< 0.2 µM	O=C(O)c1c(O)c(=O)n(Cc2cnn(CC(=O)N3CC[C@@H](O)C3)c2)c2ccsc12 [Example 27, 6-hydroxy-4-[(1-{2-[(3R)-3-hydroxypyrrolidin-1-yl]-2-oxo-ethyl}pyrazol-4-yl)methyl]-5-oxo-thieno[3,2-b]pyridine-7-carboxylic acid]
2.25 to 10 µM	CCOC(=O)c1c(O)c(=O)n(Cc2ccc(OC)cc2)c2ccsc12 [Example 33, ethyl 6-hydroxy-4-(4-methoxybenzyl)-5-oxo-4,5-dihydrothieno[3,2-b]pyridine-7-carboxylate]
2.25 to 10 µM	O=C(O)c1c(O)c(=O)n(Cc2ccccc2Br)c2ccsc12 [Example 35, 4-(2-bromobenzyl)-6-hydroxy-5-oxo-4,5-dihydrothieno[3,2-b]pyridine-7-carboxylic acid]
2.25 to 10 µM	O=C(O)c1c(O)c(=O)n(Cc2ccccn2)c2ccsc12 [Example 38, 6-hydroxy-5-oxo-4-(pyridin-2-ylmethyl)-4,5-dihydrothieno[3,2-b]pyridine-7-carboxylic acid]
2.25 to 10 µM	CC(=O)Nc1ccccc1Cn1c(=O)c(O)c(C(=O)O)c2sccc21 [Example 39, 4-(2-acetamidobenzyl)-6-hydroxy-5-oxo-4,5-dihydrothieno[3,2-b]pyridine-7-carboxylic acid]
0.25 to 0.75 µM	O=C(O)c1c(O)c(=O)n(Cc2cccc(C(F)(F)F)c2)c2ccsc12 [Example 43, 6-hydroxy-5-oxo-4-(3-(trifluoromethyl)benzyl)-4,5-dihydrothieno[3,2-b]pyridine-7-carboxylic acid]

IC50	SMILES
2.25 to 10 µM	O=C(O)c1c(O)c(=O)n(CC2CCCCC2)c2ccsc12 [Example 44, 4-(cyclohexylmethyl)-6-hydroxy-5-oxo-4,5-dihydrothieno[3,2-b]pyridine-7-carboxylic acid]
2.25 to 10 µM	O=C(O)c1c(O)c(=O)n(Cc2ccncc2)c2ccsc12 [Example 47, 6-hydroxy-5-oxo-4-(pyridin-4-ylmethyl)-4,5-dihydrothieno[3,2-b]pyridine-7-carboxylic acid]
2.25 to 10 µM	Cn1nc(Cn2c(=O)c(O)c(C(=O)O)c3sccc32)c2ccccc21 [Example 51]
0.25 to 0.75 µM	COc1cccc(Cn2c(=O)c(O)c(C(=O)O)c3sccc32)c1 [Example 52, 6-hydroxy-4-(3-methoxybenzyl)-5-oxo-4,5-dihydrothieno[3,2-b]pyridine-7-carboxylic acid]
2.25 to 10 µM	N#Cc1ccccc1Cn1c(=O)c(O)c(C(=O)O)c2sccc21 [Example 54, 4-(2-cyanobenzyl)-6-hydroxy-5-oxo-4,5-dihydrothieno[3,2-b]pyridine-7-carboxylic acid]
0.75 to 2.25 µM	O=C(O)c1c(O)c(=O)n(Cc2cccc(OC(F)(F)F)c2)c2ccsc12 [Example 55, 6-hydroxy-5-oxo-4-(3-(trifluoromethoxy)benzyl)-4,5-dihydrothieno[3,2-b]pyridine-7-carboxylic acid]
2.25 to 10 µM	O=C(O)c1c(O)c(=O)n(Cc2ccc(OC(F)(F)F)cc2)c2ccsc12 [Example 56, 6-hydroxy-5-oxo-4-(4-(trifluoromethoxy)benzyl)-4,5-dihydrothieno[3,2-b]pyridine-7-carboxylic acid]
< 0.2 µM	O=C(O)c1c(O)c(=O)n(Cc2ccc(OC(F)F)cc2)c2ccsc12 [Example 57, 4-(4-(difluoromethoxy)benzyl)-6-hydroxy-5-oxo-4,5-dihydrothieno[3,2-b]pyridine-7-carboxylic acid]
2.25 to 10 µM	N#Cc1cccc(Cn2c(=O)c(O)c(C(=O)O)c3sccc32)c1 [Example 58, 4-(3-cyanobenzyl)-6-hydroxy-5-oxo-4,5-dihydrothieno[3,2-b]pyridine-7-carboxylic acid]
0.25 to 0.75 µM	O=C(O)c1c(O)c(=O)n(Cc2ccc(Cl)c(Cl)c2)c2ccsc12 [Example 59, 4-(3,4-dichlorobenzyl)-6-hydroxy-5-oxo-4,5-dihydrothieno[3,2-b]pyridine-7-carboxylic acid]
0.75 to 2.25 µM	O=C(O)c1c(O)c(=O)n(Cc2cccnc2)c2ccsc12 [Example 60, 6-hydroxy-5-oxo-4-(pyridin-3-ylmethyl)-4,5-dihydrothieno[3,2-b]pyridine-7-carboxylic acid]
2.25 to 10 µM	COc1ccccc1Cn1c(=O)c(O)c(C(=O)O)c2sccc21 [Example 64, 6-hydroxy-4-(2-methoxybenzyl)-5-oxo-4,5-dihydrothieno[3,2-b]pyridine-7-carboxylic acid]
0.25 to 0.75 µM	CC(=O)Nc1cc(Cn2c(=O)c(O)c(C(=O)O)c3sccc32)ccc1Cl [Example 65, 4-(3-acetamido-4-chlorobenzyl)-6-hydroxy-5-oxo-4,5-dihydrothieno[3,2-b]pyridine-7-carboxylic acid]
0.25 to 0.75 µM	CNC(=O)c1ccc(Cn2c(=O)c(O)c(C(=O)O)c3sccc32)cc1 [Example 67, 6-hydroxy-4-(4-(methylcarbamoyl)benzyl)-5-oxo-4,5-dihydrothieno[3,2-b]pyridine-7-carboxylic acid]
2.25 to 10 µM	O=C(O)c1c(O)c(=O)n(Cc2ccccc2F)c2ccsc12 [Example 68, 4-(2-fluorobenzyl)-6-hydroxy-5-oxo-4,5-dihydrothieno[3,2-b]pyridine-7-carboxylic acid]
2.25 to 10 µM	O=C(O)c1c(O)c(=O)n(CC2CCOCC2)c2ccsc12 [Example 69, 6-hydroxy-5-oxo-4-[(tetrahydro-2H-pyran-4-yl)methyl]-4,5-dihydrothieno[3,2-b]pyridine-7-carboxylic acid]

SMILES	IC50
CC(C)(C)OC(=O)Nc1ccc(Cn2c(=O)c(O)c(C(=O)O)c3sccc32)cc1 [Example 15, 4-(4-((tert-butoxycarbonyl)amino)benzyl)-6-hydroxy-5-oxo-4,5-dihydrothieno[3,2-b]pyridine-7-carboxylic acid]	< 0.2 µM
CC(C)(C)OC(=O)N1CCCC(Cn2c(=O)c(O)c(C(=O)O)c3sccc32)C1 (stereo not shown) [Example 61, 4-{[1-(tert-butoxycarbonyl)piperidin-3-yl]methyl}-6-hydroxy-5-oxo-4,5-dihydrothieno[3,2-b]pyridine-7-carboxylic acid]	2.25 to 10 µM
